In BindingDB's records for doi:10.1016/j.ejmech.2020.112034 (Shiv Nadar University, 2020) one finds Ki data, which are given here for two compounds.

For experiment [1], the target named is T1, Maltase-glucoamylase (Homo sapiens, UniProt O43451). The experiment in a line: Non-competitive inhibition of alpha-glucosidase (unknown origin) using p-nitrophenyl-alpha-D glucopyranoside as substrate incubated for 30 mins by Lineweaver-Burk plot analysis.
For experiment [2], the target named is T1, Maltase-glucoamylase. The experiment in a line: Mixed type inhibition of alpha-glucosidase (unknown origin) using p-nitrophenyl-alpha-D glucopyranoside as substrate incubated for 30 mins by Lineweaver-Burk plot analysis.

T1 sequence (O43451 whole entry): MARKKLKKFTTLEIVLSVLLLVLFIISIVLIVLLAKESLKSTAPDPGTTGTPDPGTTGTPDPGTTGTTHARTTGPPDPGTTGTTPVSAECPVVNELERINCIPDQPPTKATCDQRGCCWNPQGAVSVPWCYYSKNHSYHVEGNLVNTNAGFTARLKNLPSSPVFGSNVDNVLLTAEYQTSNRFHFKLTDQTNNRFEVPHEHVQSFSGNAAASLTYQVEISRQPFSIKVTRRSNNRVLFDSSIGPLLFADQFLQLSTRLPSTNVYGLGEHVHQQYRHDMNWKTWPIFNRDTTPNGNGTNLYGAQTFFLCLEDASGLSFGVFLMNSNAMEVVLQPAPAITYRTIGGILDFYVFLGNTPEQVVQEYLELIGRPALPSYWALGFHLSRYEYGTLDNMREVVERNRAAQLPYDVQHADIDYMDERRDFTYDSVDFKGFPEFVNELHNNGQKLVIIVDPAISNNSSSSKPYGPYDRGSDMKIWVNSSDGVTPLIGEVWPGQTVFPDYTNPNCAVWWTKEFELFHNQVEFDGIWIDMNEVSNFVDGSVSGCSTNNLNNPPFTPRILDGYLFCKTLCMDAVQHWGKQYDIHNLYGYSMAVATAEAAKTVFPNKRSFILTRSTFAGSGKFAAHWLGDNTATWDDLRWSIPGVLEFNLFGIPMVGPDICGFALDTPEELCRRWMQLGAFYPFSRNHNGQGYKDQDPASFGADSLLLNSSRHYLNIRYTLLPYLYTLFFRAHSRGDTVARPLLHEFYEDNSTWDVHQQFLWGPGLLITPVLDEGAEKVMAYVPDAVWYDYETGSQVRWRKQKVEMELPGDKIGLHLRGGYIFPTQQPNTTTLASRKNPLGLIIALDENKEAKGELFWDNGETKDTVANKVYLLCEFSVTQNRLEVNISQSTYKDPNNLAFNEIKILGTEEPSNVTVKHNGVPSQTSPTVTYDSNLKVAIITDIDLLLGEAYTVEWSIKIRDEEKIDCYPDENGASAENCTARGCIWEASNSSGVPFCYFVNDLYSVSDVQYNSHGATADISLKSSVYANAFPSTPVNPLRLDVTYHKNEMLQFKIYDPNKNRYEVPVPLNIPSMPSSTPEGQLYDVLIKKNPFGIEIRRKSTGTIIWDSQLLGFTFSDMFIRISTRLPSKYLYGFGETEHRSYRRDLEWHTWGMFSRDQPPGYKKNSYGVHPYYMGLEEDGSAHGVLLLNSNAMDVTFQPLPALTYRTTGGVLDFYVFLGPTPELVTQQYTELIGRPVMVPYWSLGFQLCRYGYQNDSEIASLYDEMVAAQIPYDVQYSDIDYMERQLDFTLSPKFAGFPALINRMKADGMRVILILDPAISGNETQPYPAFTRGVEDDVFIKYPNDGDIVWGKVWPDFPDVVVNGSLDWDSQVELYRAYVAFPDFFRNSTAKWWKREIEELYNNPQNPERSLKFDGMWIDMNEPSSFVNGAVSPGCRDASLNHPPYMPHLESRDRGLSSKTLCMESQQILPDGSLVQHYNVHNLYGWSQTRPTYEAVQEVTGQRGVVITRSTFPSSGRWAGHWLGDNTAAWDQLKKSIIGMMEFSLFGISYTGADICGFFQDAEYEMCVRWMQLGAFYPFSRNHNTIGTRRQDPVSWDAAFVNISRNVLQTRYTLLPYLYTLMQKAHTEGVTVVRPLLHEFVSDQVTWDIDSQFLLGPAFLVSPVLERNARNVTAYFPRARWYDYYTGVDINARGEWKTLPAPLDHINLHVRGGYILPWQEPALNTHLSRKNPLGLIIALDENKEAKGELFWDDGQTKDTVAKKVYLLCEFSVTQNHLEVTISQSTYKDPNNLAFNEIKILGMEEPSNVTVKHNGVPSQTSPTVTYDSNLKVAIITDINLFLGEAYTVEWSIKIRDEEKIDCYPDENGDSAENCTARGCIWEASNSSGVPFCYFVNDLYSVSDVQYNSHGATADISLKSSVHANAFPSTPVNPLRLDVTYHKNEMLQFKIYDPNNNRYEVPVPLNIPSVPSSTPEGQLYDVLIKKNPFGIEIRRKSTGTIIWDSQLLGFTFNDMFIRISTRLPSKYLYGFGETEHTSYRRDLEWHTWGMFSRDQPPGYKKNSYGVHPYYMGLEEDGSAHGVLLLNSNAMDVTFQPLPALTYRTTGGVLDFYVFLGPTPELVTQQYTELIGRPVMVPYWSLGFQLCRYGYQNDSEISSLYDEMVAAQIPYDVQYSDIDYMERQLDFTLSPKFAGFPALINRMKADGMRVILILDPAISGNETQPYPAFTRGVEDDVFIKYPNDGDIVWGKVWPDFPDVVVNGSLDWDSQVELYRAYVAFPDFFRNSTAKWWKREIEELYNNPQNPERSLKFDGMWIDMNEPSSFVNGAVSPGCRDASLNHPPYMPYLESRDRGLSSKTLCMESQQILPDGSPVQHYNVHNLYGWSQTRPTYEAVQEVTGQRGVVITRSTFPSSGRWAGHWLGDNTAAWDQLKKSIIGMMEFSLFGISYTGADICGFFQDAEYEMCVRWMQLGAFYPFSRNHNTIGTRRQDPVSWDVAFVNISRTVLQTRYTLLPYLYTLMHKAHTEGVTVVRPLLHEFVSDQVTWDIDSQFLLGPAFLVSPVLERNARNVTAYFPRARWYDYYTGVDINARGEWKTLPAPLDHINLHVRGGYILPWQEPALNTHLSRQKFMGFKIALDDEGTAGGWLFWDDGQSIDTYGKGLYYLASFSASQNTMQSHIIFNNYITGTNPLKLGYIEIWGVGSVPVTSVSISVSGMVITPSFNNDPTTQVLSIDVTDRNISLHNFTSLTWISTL

Usually Ki stands for the equilibrium dissociation constant of an inhibitor or competing ligand from its target. Higher therefore signals lower affinity. At Maltase-glucoamylase [1], `CC(C)=CCc1cc(C(=O)/C=C/c2ccc(O)c(O)c2)c(O)cc1O` [broussochalcone A] returned a Ki of 5.3 µM.

`CC(C)=CCc1cc(-c2oc3cc(O)c(CC=C(C)C)c(O)c3c(=O)c2O)cc(O)c1O` [CHEBI:66727] displayed a Ki at Maltase-glucoamylase [2] of 2.3 µM.
